Measurements: ChEMBL document CHEMBL1152402, “Discovery of a new class of catalytic topoisomerase II inhibitors targeting the ATP-binding site by structure based design. Part I” (Bioorg Med Chem Lett, 2009)
pIC50: −log10 of the molar value.

Assays:
[1] = target: T1, DNA topoisomerase 2-alpha (Homo sapiens, UniProt P11388); experiment: Inhibition of ATPase activity of human topoisomerase 2 alpha
[2] = target: T1, DNA topoisomerase 2-alpha; experiment: Inhibition of ATPase activity of human topoisomerase 2 alpha at 10 uM

T1 sequence (P11388 whole entry): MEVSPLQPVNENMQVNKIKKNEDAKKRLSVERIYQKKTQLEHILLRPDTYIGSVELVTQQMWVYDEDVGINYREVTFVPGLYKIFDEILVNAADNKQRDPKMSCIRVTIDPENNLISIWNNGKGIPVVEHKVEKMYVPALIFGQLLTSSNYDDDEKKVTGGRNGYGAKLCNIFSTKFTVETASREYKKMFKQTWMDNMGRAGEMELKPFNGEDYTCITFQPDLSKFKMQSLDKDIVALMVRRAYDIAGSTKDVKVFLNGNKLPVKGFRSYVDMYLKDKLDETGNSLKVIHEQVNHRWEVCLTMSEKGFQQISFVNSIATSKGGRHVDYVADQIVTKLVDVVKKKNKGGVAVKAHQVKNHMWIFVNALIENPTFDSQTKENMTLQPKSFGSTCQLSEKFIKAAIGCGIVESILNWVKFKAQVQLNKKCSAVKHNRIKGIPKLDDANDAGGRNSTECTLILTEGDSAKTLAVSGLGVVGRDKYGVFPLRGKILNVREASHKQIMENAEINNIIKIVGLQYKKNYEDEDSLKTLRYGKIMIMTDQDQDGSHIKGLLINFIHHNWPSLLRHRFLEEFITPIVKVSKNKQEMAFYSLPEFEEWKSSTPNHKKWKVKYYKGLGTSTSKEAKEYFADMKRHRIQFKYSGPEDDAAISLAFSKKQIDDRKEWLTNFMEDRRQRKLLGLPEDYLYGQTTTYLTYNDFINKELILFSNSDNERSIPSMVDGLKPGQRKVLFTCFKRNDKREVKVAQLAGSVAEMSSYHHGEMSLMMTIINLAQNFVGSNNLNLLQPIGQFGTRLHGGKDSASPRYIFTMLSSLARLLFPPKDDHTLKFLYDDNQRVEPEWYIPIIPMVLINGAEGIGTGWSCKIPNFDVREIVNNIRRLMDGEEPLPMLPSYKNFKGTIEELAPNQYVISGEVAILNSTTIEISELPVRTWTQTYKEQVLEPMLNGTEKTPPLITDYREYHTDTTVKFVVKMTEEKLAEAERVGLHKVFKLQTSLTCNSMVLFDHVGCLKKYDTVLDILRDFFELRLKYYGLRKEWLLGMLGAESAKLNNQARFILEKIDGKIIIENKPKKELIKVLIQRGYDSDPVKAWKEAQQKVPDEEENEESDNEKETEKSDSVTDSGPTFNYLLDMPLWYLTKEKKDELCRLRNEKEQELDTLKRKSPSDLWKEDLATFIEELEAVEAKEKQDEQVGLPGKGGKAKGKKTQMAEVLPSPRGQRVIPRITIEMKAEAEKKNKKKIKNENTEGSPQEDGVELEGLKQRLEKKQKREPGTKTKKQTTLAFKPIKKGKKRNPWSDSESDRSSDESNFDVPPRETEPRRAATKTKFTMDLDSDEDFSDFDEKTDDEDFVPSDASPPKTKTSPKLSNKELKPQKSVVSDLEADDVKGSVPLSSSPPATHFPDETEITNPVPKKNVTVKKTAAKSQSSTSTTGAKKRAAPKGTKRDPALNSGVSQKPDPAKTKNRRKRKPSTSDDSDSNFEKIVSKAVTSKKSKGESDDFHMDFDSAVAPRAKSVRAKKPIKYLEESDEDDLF

pIC50 [1] | inhibition [2] [%] | Structure (SMILES)
5.77 |  | CC(C)(C)Nc1nc(Nc2ccc3ncsc3c2)nc2[nH]cnc12
 | 7 | Cn1cnc2c(NC(C)(C)C)nc(Nc3ccc4ncsc4c3)nc21
